≈ marks a conversion by molar mass, not a printed value.
Key:
[1] = tested on: U-937; assay: Antiproliferative activity against human U-937 cells assessed as inhibition of cell growth measured after 72 by Cell titre-glo assay; type: functional, cell-based
[2] = tested on: Daudi; assay: Antiproliferative activity against human Daudi cells assessed as inhibition of cell growth measured after 72 by Cell titre-glo assay; type: functional, cell-based
[3] = tested on: PC-9; assay: Antiproliferative activity against human PC-9 cells assessed as inhibition of cell growth measured after 72 by Cell titre-glo assay; type: functional, cell-based
[4] = tested on: A2780; assay: Antiproliferative activity against human A2780 cells assessed as inhibition of cell growth measured after 72 by Cell titre-glo assay; type: functional, cell-based
[5] = tested on: HT-29; assay: Antiproliferative activity against human HT-29 cells assessed as inhibition of cell growth measured after 72 by Cell titre-glo assay; type: functional, cell-based
[6] = tested on: NB-4; assay: Antiproliferative activity against human NB4 cells assessed as inhibition of cell growth measured after 72 by Cell titre-glo assay; type: functional, cell-based
[7] = tested on: Raji; assay: Antiproliferative activity against human Raji cells assessed as inhibition of cell growth measured after 72 by Cell titre-glo assay; type: functional, cell-based
[8] = tested on: PC-3; assay: Antiproliferative activity against human PC-3 cells assessed as inhibition of cell growth measured after 72 by Cell titre-glo assay; type: functional, cell-based
[9] = tested on: Helicobacter pylori; assay: Antibacterial activity against Helicobacter pylori 26695 assessed as inhibition of bacterial growth measured after 3 days by broth microdilution assay; type: functional; conditions: Helicobacter pylori, 26695, 72 h; time 3 day
[10] = tested on: Mycolicibacterium smegmatis; assay: Antibacterial activity against Mycolicibacterium smegmatis ATCC607 assessed as inhibition of bacterial growth measured after 3 days by broth microdilution assay; type: functional; conditions: ATCC607, 72 h, time 3 day
[11] = tested on: Helicobacter pylori; assay: Antibacterial activity against Helicobacter pylori G27 assessed as inhibition of bacterial growth measured after 3 days by broth microdilution assay; type: functional; conditions: G27, 72 h, time 3 day

| IC50 [1] | IC50 [2] | IC50 [3] | IC50 [4] | IC50 [5] | IC50 [7] | IC50 [8] | MIC [9] | MIC [10] | MIC [11] | SMILES | IC50 [6] |
| --- | --- | --- | --- | --- | --- | --- | --- | --- | --- | --- | --- |
| > 20 µM | > 20 µM | > 20 µM | > 20 µM | > 20 µM | > 20 µM | > 20 µM |  |  |  | CC(C)CCC(=O)N[C@@H](CC(C)C)C(=O)N[C@H](CCCNC(=N)N)C(=O)N[C@@H]1C(=O)N[C@@H]([C@@H](C)C(C)C)C(=O)NCC(=O)N[C@@H]([C@H](C)C(C)C)C(=O)O[C@@H]1C | > 20 µM |
| > 20 µM | > 20 µM | > 20 µM | > 20 µM | > 20 µM | > 20 µM | > 20 µM | 32 µg/mL (≈ 39.6 µM) | 32 µg/mL (≈ 39.6 µM) | 32 µg/mL (≈ 39.6 µM) | CC(C)CCCCC(=O)N[C@@H](CC(C)C)C(=O)N[C@H](CCCNC(=N)N)C(=O)N[C@@H]1C(=O)N[C@@H]([C@@H](C)C(C)C)C(=O)NCC(=O)N[C@@H]([C@H](C)C(C)C)C(=O)O[C@@H]1C | > 20 µM |
| > 20 µM | > 20 µM | > 20 µM | > 20 µM | > 20 µM | > 20 µM | > 20 µM |  |  |  | CC(C)C[C@H](NC(=O)Cc1ccccc1)C(=O)N[C@H](CCCNC(=N)N)C(=O)N[C@@H]1C(=O)N[C@@H]([C@@H](C)C(C)C)C(=O)NCC(=O)N[C@@H]([C@H](C)C(C)C)C(=O)O[C@@H]1C | > 20 µM |

Source: ChEMBL document CHEMBL5360588, “LC-MS-Guided Isolation of Cyanogripeptides A-C, Cyclolipopeptides with β-Methyl-Leucine Residues, from an Actinoalloteichus cyanogriseus LHW52806” (J Nat Prod, 2023)
